Results: patent US8648081B2 (Eli Lilly and Company, priority 2011, dated 2014)

Test system: Lone star tick larvae (Amblyomma americanum)
Test: In Vitro Larval Immersion Microassay (LIM)
Conditions: read-out: % Efficacy (percent larval mortality)

`C#CCNC(=O)CNC(=O)c1sc(C2=NO[C@@](c3cc(Cl)c(F)c(Cl)c3)(C(F)(F)F)C2)c2c1CCC2` [Example 249, (S)-3-(5-(3,5-dichloro-4-fluorophenyl)-5-(trifluoromethyl)-4,5-dihydroisoxazol-3-yl)-N-(2-oxo-2-(prop-2-ynylamino)ethyl)-5,6-dihydro-4H-cyclopenta[c]thiophene-1-carboxamide] showed a mortality at 300 µM of no less than 80%.
